Laboratory results published in ChEMBL document CHEMBL4706513, “New insight into 20(S)-ginsenoside Rh2 against T-cell acute lymphoblastic leukemia associated with the gut microbiota and the immune system” (2020).
Calls of active or inactive are those of the source. The rule behind the calls is not given here.

Tests used:
Mus musculus [1] = experiment: Inhibition of intestinal dysbiosis in SCID/NOD mouse xenografted with human Jurkat cells assessed as increase in abundance of Bacteroidetes in cecum at 40 mg/kg, po administered once a day for 3 weeks by multiplexed 16S rRNA gene sequencing analysis; type: functional, organism-based; conditions: dose 40.0 mg/kg/day
Mus musculus [2] = experiment: Inhibition of spleen infiltration in SCID/NOD mouse xenografted with human Jurkat cells assessed as reduction in spleen enlargement at 40 mg/kg, po administered once a day for 3 weeks; type: functional, organism-based; conditions: dose 40.0 mg/kg/day
Mus musculus [3] = experiment: Inhibition of spleen infiltration in SCID/NOD mouse xenografted with human Jurkat cells assessed as decrease in CD3 expression in spleen at 40 mg/kg, po once a day for 3 weeks by immunohistochemical staining method; type: functional, organism-based; conditions: dose 40.0 mg/kg/day
Mus musculus [4] = experiment: Induction of immune response in SCID/NOD mouse xenografted with human Jurkat cells assessed as increase in NK cells in spleen at 40 mg/kg, po administered once a day for 3 weeks by ELISA reader method; type: functional, organism-based; conditions: dose 40.0 mg/kg/day
Mus musculus [5] = experiment: Induction of intestinal homeostasis in SCID/NOD mouse xenografted with human Jurkat cells assessed as reduction in crypt depth in colon at 40 mg/kg, po administered once a day for 3 weeks by AB-PAS staining based microscopic analysis; type: functional, organism-based; conditions: dose 40.0 mg/kg/day
Mus musculus [6] = experiment: Inhibition of spleen infiltration in SCID/NOD mouse xenografted with human Jurkat cells assessed as decrease in CD45 expression in spleen at 40 mg/kg, po once a day for 3 weeks by immunohistochemical staining method; type: functional, organism-based; conditions: dose 40.0 mg/kg/day
Mus musculus [7] = experiment: Induction of intestinal homeostasis in SCID/NOD mouse xenografted with human Jurkat cells assessed as increase in Reg3g expression in colon at 40 mg/kg, po administered once a day for 3 weeks by Western blot analysis; type: functional, organism-based; conditions: dose 40.0 mg/kg/day
Mus musculus [8] = experiment: Induction of immune response in SCID/NOD mouse xenografted with human Jurkat cells assessed as decrease in IL-6 level in spleen at 40 mg/kg, po administered once a day for 3 weeks by ELISA reader method; type: functional, organism-based; conditions: dose 40.0 mg/kg/day
Mus musculus [9] = experiment: Induction of intestinal homeostasis in SCID/NOD mouse xenografted with human Jurkat cells assessed as upregulation of secretion of IgA from B cells in colon at 40 mg/kg, po administered once a day for 3 weeks by western blot analysis; type: functional, organism-based; conditions: dose 40.0 mg/kg/day
Mus musculus [10] = experiment: Inhibition of intestinal inflammation in SCID/NOD mouse xenografted with human Jurkat cells assessed as decrease in MYD88 expression in colon at 40 mg/kg, po administered once a day for 3 weeks by Western blot analysis; type: functional, organism-based; conditions: dose 40.0 mg/kg/day
Mus musculus [11] = experiment: Inhibition of intestinal dysbiosis in SCID/NOD mouse xenografted with human Jurkat cells assessed as increase in abundance of Akkermansia in cecum at 40 mg/kg, po administered once a day for 3 weeks by multiplexed 16S rRNA gene sequencing analysis; type: functional, organism-based; conditions: dose 40.0 mg/kg/day
Mus musculus [12] = experiment: Inhibition of intestinal dysbiosis in SCID/NOD mouse xenografted with human Jurkat cells assessed as decrease in abundance of Firmicutes in cecum at 40 mg/kg, po administered once a day for 3 weeks by multiplexed 16S rRNA gene sequencing analysis; type: functional, organism-based; conditions: dose 40.0 mg/kg/day
Mus musculus [13] = experiment: Inhibition of intestinal inflammation in SCID/NOD mouse xenografted with human Jurkat cells assessed as decrease in TLR4 expression in colon at 40 mg/kg, po administered once a day for 3 weeks by Western blot analysis; type: functional, organism-based; conditions: dose 40.0 mg/kg/day
Mus musculus [14] = experiment: Induction of intestinal homeostasis in SCID/NOD mouse xenografted with human Jurkat cells assessed as increase in Reg3b expression in colon at 40 mg/kg, po administered once a day for 3 weeks by Western blot analysis; type: functional, organism-based; conditions: dose 40.0 mg/kg/day
Mus musculus [15] = experiment: Induction of intestinal homeostasis in SCID/NOD mouse xenografted with human Jurkat cells assessed as increase in goblet cells in the glands at 40 mg/kg, po administered once a day for 3 weeks by Hand E staining based microscopic analysis; type: functional, organism-based; conditions: dose 40.0 mg/kg/day
Jurkat [16] = experiment: Antitumour activity against human Jurkat cells xenografted in SCID/NOD mouse assessed as proportion of CD45-positive cells in peripheral blood at 40 mg/kg, po administered once a day for 3 weeks by immunophenotyping based flow cytometry method (reference value: 4.88%); type: functional; conditions: dose 40 mg/kg/day
Mus musculus [17] = experiment: Inhibition of intestinal dysbiosis in SCID/NOD mouse xenografted with human Jurkat cells assessed as decrease in ratio of Firmicutes to Bacteroidetes in cecum at 40 mg/kg, po administered once a day for 3 weeks by multiplexed 16S rRNA gene sequencing analysis; type: functional; conditions: dose 40 mg/kg/day
Mus musculus [18] = experiment: In vivo inhibition of mTOR phosphorylation at Ser2448 residue in spleen of SCID/NOD mouse xenografted with human Jurkat cells at 40 mg/kg, po administered once a day for 3 weeks by Western blot method; type: functional, organism-based; conditions: dose 40.0 mg/kg/day
Jurkat [19] = experiment: Antitumour activity against human Jurkat cells xenografted in SCID/NOD mouse assessed as reduction of inactivity and messy hair at 40 mg/kg, po administered once a day for 3 weeks; type: functional, organism-based; conditions: dose 40.0 mg/kg/day
Mus musculus [20] = experiment: Induction of intestinal homeostasis in SCID/NOD mouse xenografted with human Jurkat cells assessed as decrease in enlarged colon tissue at 40 mg/kg, po administered once a day for 3 weeks by AB-PAS staining based microscopic analysis; type: functional, organism-based; conditions: dose 40.0 mg/kg/day
Mus musculus [21] = experiment: Inhibition of intestinal inflammation in SCID/NOD mouse xenografted with human Jurkat cells assessed as decrease in TNFalpha level in colon at 40 mg/kg, po administered once a day for 3 weeks by ELISA; type: functional, organism-based; conditions: dose 40.0 mg/kg/day
Mus musculus [22] = experiment: In vivo inhibition of Akt phosphorylation at Ser473 residue in spleen of SCID/NOD mouse xenografted with human Jurkat cells at 40 mg/kg, po administered once a day for 3 weeks by Western blot method; type: functional, organism-based; conditions: dose 40.0 mg/kg/day
Mus musculus [23] = experiment: Inhibition of intestinal dysbiosis in SCID/NOD mouse xenografted with human Jurkat cells assessed as increase in abundance of Lactobacillus in cecum at 40 mg/kg, po administered once a day for 3 weeks by multiplexed 16S rRNA gene sequencing analysis; type: functional, organism-based; conditions: dose 40.0 mg/kg/day
Jurkat [24] = experiment: Antitumour activity against human Jurkat cells xenografted in SCID/NOD mouse assessed as decrease in expression of CD3 in bone marrow at 40 mg/kg, po administered once a day for 3 weeks by immunohistochemical staining method; type: functional, organism-based; conditions: dose 40.0 mg/kg/day

**Q.** Which inhibition (Mus musculus [1]) does the source give for `CC(C)=CCC[C@](C)(O)[C@H]1CC[C@]2(C)[C@@H]1[C@H](O)C[C@@H]1[C@@]3(C)CC[C@H](O[C@@H]4O[C@H](CO)[C@@H](O)[C@H](O)[C@H]4O)C(C)(C)[C@@H]3CC[C@]12C` [GINSENOSIDE RH2] here?
**A.** The inhibition was “Active”.

**Q.** And the inhibition (Mus musculus [2])?
**A.** The inhibition was “Active”.

**Q.** What about the inhibition (Mus musculus [3]) of the same compound?
**A.** Its inhibition is “Active”.

**Q.** And the Activity (Mus musculus [4])?
**A.** Its Activity is “Active”.

**Q.** And the Activity (Mus musculus [5])?
**A.** Its Activity is “Active”.

**Q.** What about the inhibition (Mus musculus [6]) of the same compound?
**A.** The inhibition was “Active”.

**Q.** And the Activity (Mus musculus [7])?
**A.** The Activity was “Active”.

**Q.** And the Activity (Mus musculus [8])?
**A.** The Activity was “Active”.

**Q.** And the Activity (Mus musculus [9])?
**A.** The Activity was “Active”.

**Q.** What about the inhibition (Mus musculus [10]) of the same compound?
**A.** Its inhibition is “Active”.

**Q.** What about the inhibition (Mus musculus [11]) of the same compound?
**A.** Its inhibition is “Active”.

**Q.** What about the inhibition (Mus musculus [12]) of the same compound?
**A.** Its inhibition is “Active”.

**Q.** What about the inhibition (Mus musculus [13]) of the same compound?
**A.** Its inhibition is “Active”.

**Q.** What about the Activity (Mus musculus [14]) of the same compound?
**A.** The Activity was “Active”.

**Q.** What about the Activity (Mus musculus [15]) of the same compound?
**A.** The Activity was “Active”.

**Q.** And the Activity (Jurkat [16])?
**A.** The Activity was 1.28%.

**Q.** What about the Ratio (Mus musculus [17]) of the same compound?
**A.** The Ratio was 0.47.

**Q.** What about the inhibition (Mus musculus [18]) of the same compound?
**A.** Its inhibition is “Active”.

**Q.** And the Activity (Jurkat [19])?
**A.** The Activity was “Active”.

**Q.** What about the Activity (Mus musculus [20]) of the same compound?
**A.** Its Activity is “Active”.

**Q.** And the inhibition (Mus musculus [21])?
**A.** The inhibition was “Active”.

**Q.** And the inhibition (Mus musculus [22])?
**A.** Its inhibition is “Active”.

**Q.** And the inhibition (Mus musculus [23])?
**A.** The inhibition was “Active”.

**Q.** And the Activity (Jurkat [24])?
**A.** The Activity was “Active”.
